Laboratory results: PubChem BioAssay AID1259407 (Chemical Carcinogenesis Research Information System (CCRIS), 2018)
The source made the active and inactive calls. No rule for the calls is given here.

System: CCRIS mutagenicity, Ames/micronucleus/aberration tests
Assay: CCRIS mutagenicity studies
[1] = Test System: AMES SALMONELLA TYPHIMURIUM, Strain/Indicator: TA97, Metabolic Activation: NONE, Method: PREINCUBATION
[2] = Test System: AMES SALMONELLA TYPHIMURIUM, Strain/Indicator: TA98, Metabolic Activation: NONE, Method: PREINCUBATION
[3] = Test System: AMES SALMONELLA TYPHIMURIUM, Strain/Indicator: TA100, Metabolic Activation: NONE, Method: PREINCUBATION
[4] = Test System: AMES SALMONELLA TYPHIMURIUM, Strain/Indicator: TA1535, Metabolic Activation: NONE, Method: PREINCUBATION
[5] = Test System: AMES SALMONELLA TYPHIMURIUM, Strain/Indicator: TA100, Metabolic Activation: NONE, Method: STANDARD PLATE

Measured: mutagenic call

CC(=O)CC(=O)Nc1ccccc1
inactive: End Point: In vitro chromosomal aberrations, Test System: Chinese hamster lung (CHL/IU) cells, Metabolic Activation: Rat, Liver, S9, Phenobarbital and 5,6-benzoflavone inactive; negative | Test System: AMES SALMONELLA TYPHIMURIUM, Strain/Indicator: TA97, Metabolic Activation: HAMSTER, LIVER, S-9, AROCLOR 1254 (10%), Method: PREINCUBATION inactive; negative | Test System: AMES SALMONELLA TYPHIMURIUM, Strain/Indicator: TA97, Metabolic Activation: HAMSTER, LIVER, S-9, AROCLOR 1254 (30%), Method: PREINCUBATION inactive; negative | [1] inactive; negative | Test System: AMES SALMONELLA TYPHIMURIUM, Strain/Indicator: TA97, Metabolic Activation: RAT, LIVER, S-9, AROCLOR 1254 (10%), Method: PREINCUBATION inactive; negative | Test System: AMES SALMONELLA TYPHIMURIUM, Strain/Indicator: TA97, Metabolic Activation: RAT, LIVER, S-9, AROCLOR 1254 (30%), Method: PREINCUBATION inactive; negative | Test System: AMES SALMONELLA TYPHIMURIUM, Strain/Indicator: TA98, Metabolic Activation: HAMSTER, LIVER, S-9, AROCLOR 1254 (10%), Method: PREINCUBATION inactive; negative | Test System: AMES SALMONELLA TYPHIMURIUM, Strain/Indicator: TA98, Metabolic Activation: HAMSTER, LIVER, S-9, AROCLOR 1254 (30%), Method: PREINCUBATION inactive; negative | [2] inactive; negative | Test System: AMES SALMONELLA TYPHIMURIUM, Strain/Indicator: TA98, Metabolic Activation: RAT, LIVER, S-9, AROCLOR 1254 (10%), Method: PREINCUBATION inactive; negative | Test System: AMES SALMONELLA TYPHIMURIUM, Strain/Indicator: TA98, Metabolic Activation: RAT, LIVER, S-9, AROCLOR 1254 (30%), Method: PREINCUBATION inactive; negative | Test System: AMES SALMONELLA TYPHIMURIUM, Strain/Indicator: TA100, Metabolic Activation: HAMSTER, LIVER, S-9, AROCLOR 1254 (10%), Method: PREINCUBATION inactive; negative | Test System: AMES SALMONELLA TYPHIMURIUM, Strain/Indicator: TA100, Metabolic Activation: HAMSTER, LIVER, S-9, AROCLOR 1254 (30%), Method: PREINCUBATION inactive; negative | [3] inactive; negative | Test System: AMES SALMONELLA TYPHIMURIUM, Strain/Indicator: TA100, Metabolic Activation: RAT, LIVER, S-9, AROCLOR 1254 (10%), Method: PREINCUBATION inactive; negative | Test System: AMES SALMONELLA TYPHIMURIUM, Strain/Indicator: TA100, Metabolic Activation: RAT, LIVER, S-9, AROCLOR 1254 (30%), Method: PREINCUBATION inactive; negative | Test System: AMES SALMONELLA TYPHIMURIUM, Strain/Indicator: TA1535, Metabolic Activation: HAMSTER, LIVER, S-9, AROCLOR 1254 (10%), Method: PREINCUBATION inactive; negative | Test System: AMES SALMONELLA TYPHIMURIUM, Strain/Indicator: TA1535, Metabolic Activation: HAMSTER, LIVER, S-9, AROCLOR 1254 (30%), Method: PREINCUBATION inactive; negative | [4] inactive; negative | Test System: AMES SALMONELLA TYPHIMURIUM, Strain/Indicator: TA1535, Metabolic Activation: RAT, LIVER, S-9, AROCLOR 1254 (10%), Method: PREINCUBATION inactive; negative | Test System: AMES SALMONELLA TYPHIMURIUM, Strain/Indicator: TA1535, Metabolic Activation: RAT, LIVER, S-9, AROCLOR 1254 (30%), Method: PREINCUBATION inactive; negative | Test System: Ames Salmonella typhimurium, Strain/Indicator: TA98, Metabolic Activation: None, Method: Preincubation inactive; negative | Test System: Ames Salmonella typhimurium, Strain/Indicator: TA98, Metabolic Activation: Rat, Liver, S9, Sodium phenobarbital and 5,6-benzoflavone (10%), Method: Preincubation inactive; negative | Test System: Ames Salmonella typhimurium, Strain/Indicator: TA100, Metabolic Activation: None, Method: Preincubation inactive; negative | Test System: Ames Salmonella typhimurium, Strain/Indicator: TA100, Metabolic Activation: Rat, Liver, S9, Sodium phenobarbital and 5,6-benzoflavone (10%), Method: Preincubation inactive; negative | Test System: Ames Salmonella typhimurium, Strain/Indicator: TA1535, Metabolic Activation: None, Method: Preincubation inactive; negative | Test System: Ames Salmonella typhimurium, Strain/Indicator: TA1535, Metabolic Activation: Rat, Liver, S9, Sodium phenobarbital and 5,6-benzoflavone (10%), Method: Preincubation inactive; negative | Test System: Ames Salmonella typhimurium, Strain/Indicator: TA1537, Metabolic Activation: None, Method: Preincubation inactive; negative | Test System: Ames Salmonella typhimurium, Strain/Indicator: TA1537, Metabolic Activation: Rat, Liver, S9, Sodium phenobarbital and 5,6-benzoflavone (10%), Method: Preincubation inactive; negative
active: Test System: E. coli, Strain/Indicator: WP2uvrA/pKM101, Metabolic Activation: None, Method: Preincubation active; positive | Test System: E. coli, Strain/Indicator: WP2uvrA/pKM101, Metabolic Activation: Rat, Liver, S9, Sodium phenobarbital and 5,6-benzoflavone (10%), Method: Preincubation active; positive

CC(=O)O[C@H]1C[C@@H]2[C@@]3(C)CCCC(C)(C)[C@@H]3CC[C@@]2(C)[C@@H]2CC=C(C=O)[C@H](C=O)[C@@]12C
inactive: Test System: AMES SALMONELLA TYPHIMURIUM, Strain/Indicator: TA98, Metabolic Activation: NONE, Method: STANDARD PLATE inactive; negative | [5] inactive; negative | Test System: AMES SALMONELLA TYPHIMURIUM, Strain/Indicator: TA2637, Metabolic Activation: NONE, Method: STANDARD PLATE inactive; negative

O=C(O)[C@@H]1Cc2c([nH]c3ccccc23)[C@H]([C@H]2CCNC2=S)N1
inactive: Test System: AMES SALMONELLA TYPHIMURIUM, Strain/Indicator: TA98, Metabolic Activation: NONE inactive; negative | Test System: AMES SALMONELLA TYPHIMURIUM, Strain/Indicator: TA98, Metabolic Activation: S-9 inactive; negative | Test System: AMES SALMONELLA TYPHIMURIUM, Strain/Indicator: TA100, Metabolic Activation: NONE inactive; negative | Test System: AMES SALMONELLA TYPHIMURIUM, Strain/Indicator: TA100, Metabolic Activation: S-9 inactive; negative

COP1(=S)OCc2ccccc2O1 (stereo not given)
active: [5] active; positive | Test System: AMES SALMONELLA TYPHIMURIUM, Strain/Indicator: TA100, Metabolic Activation: S-9 MIX, Method: STANDARD PLATE active; positive

CCCCCCCCCCCCCl
inactive: Test System: AMES SALMONELLA TYPHIMURIUM, Strain/Indicator: TA97, Metabolic Activation: HAMSTER, LIVER, S-9, AROCLOR 1254 (10 OR 30%), Method: PREINCUBATION inactive; negative | [1] inactive; negative | Test System: AMES SALMONELLA TYPHIMURIUM, Strain/Indicator: TA97, Metabolic Activation: RAT, LIVER, S-9, AROCLOR 1254 (10 OR 30%), Method: PREINCUBATION inactive; negative | Test System: AMES SALMONELLA TYPHIMURIUM, Strain/Indicator: TA98, Metabolic Activation: HAMSTER, LIVER, S-9, AROCLOR 1254 (10 OR 30%), Method: PREINCUBATION inactive; negative | [2] inactive; negative | Test System: AMES SALMONELLA TYPHIMURIUM, Strain/Indicator: TA98, Metabolic Activation: RAT, LIVER, S-9, AROCLOR 1254 (10 OR 30%), Method: PREINCUBATION inactive; negative | Test System: AMES SALMONELLA TYPHIMURIUM, Strain/Indicator: TA100, Metabolic Activation: HAMSTER, LIVER, S-9, AROCLOR 1254 (10 OR 30%), Method: PREINCUBATION inactive; negative | [3] inactive; negative | Test System: AMES SALMONELLA TYPHIMURIUM, Strain/Indicator: TA100, Metabolic Activation: RAT, LIVER, S-9, AROCLOR 1254 (10 OR 30%), Method: PREINCUBATION inactive; negative | Test System: AMES SALMONELLA TYPHIMURIUM, Strain/Indicator: TA1535, Metabolic Activation: HAMSTER, LIVER, S-9, AROCLOR 1254 (10 OR 30%), Method: PREINCUBATION inactive; negative | [4] inactive; negative | Test System: AMES SALMONELLA TYPHIMURIUM, Strain/Indicator: TA1535, Metabolic Activation: RAT, LIVER, S-9, AROCLOR 1254 (10 OR 30%), Method: PREINCUBATION inactive; negative | Test System: AMES SALMONELLA TYPHIMURIUM, Strain/Indicator: TA1537, Metabolic Activation: HAMSTER, LIVER, S-9, AROCLOR 1254 (30%), Method: PREINCUBATION inactive; negative | Test System: AMES SALMONELLA TYPHIMURIUM, Strain/Indicator: TA1537, Metabolic Activation: NONE, Method: PREINCUBATION inactive; negative | Test System: AMES SALMONELLA TYPHIMURIUM, Strain/Indicator: TA1537, Metabolic Activation: RAT, LIVER, S-9, AROCLOR 1254 (30%), Method: PREINCUBATION inactive; negative
